How the values were obtained:
Test in all cases: Kinase profiling
Type in all cases: binding
Details in all cases: read-out: % Ctrl @ 1000 nM
ACVR1 = ACVR1 (Homo sapiens, UniProt Q04771)
ACVR1B = ACVR1B (Homo sapiens, UniProt P36896)
BLK = BLK (Homo sapiens, UniProt P51451)
BMX = BMX (Homo sapiens, UniProt P51813)
CAMKK1 = CAMKK1 (Homo sapiens, UniProt Q8N5S9)
DCAMKL1 = DCAMKL1 (Homo sapiens, UniProt O15075)
EGFR (G719C) = EGFR (G719C) (Homo sapiens, UniProt P00533, G719C)
EGFR (T790M) = EGFR (T790M) (Homo sapiens, UniProt P00533, T790M)
EPHA5 = EPHA5 (Homo sapiens, UniProt P54756)
EPHA7 = EPHA7 (Homo sapiens, UniProt Q15375)
EPHB2 = EPHB2 (Homo sapiens, UniProt P29323)
ERK3 = ERK3 (Homo sapiens, UniProt Q16659)
FGFR1 = FGFR1 (Homo sapiens, UniProt P11362)
FLT3 = FLT3 (Homo sapiens, UniProt P36888)
FLT3 (K663Q) = FLT3 (K663Q) (Homo sapiens, UniProt P36888, K663Q)
GRK1 = GRK1 (Homo sapiens, UniProt Q15835)
HIPK1 = HIPK1 (Homo sapiens, UniProt Q86Z02)
INSR = INSR (Homo sapiens, UniProt P06213)
INSRR = INSRR (Homo sapiens, UniProt P14616)
IRAK3 = IRAK3 (Homo sapiens, UniProt Q9Y616)
MEK1 = target: T1, MEK1 (Homo sapiens, UniProt Q02750)
T1 construct: T7 phage fusion (stated for most kinases of the panel only); made in house; host or cells: T7 phage in E. coli (BL21-derived) or HEK-293 cells

MET (M1250T) = target: T2, MET (M1250T) (Homo sapiens, UniProt P08581, M1250T)
T2 construct: T7 phage fusion (stated for most kinases of the panel only); made in house; host or cells: T7 phage in E. coli (BL21-derived) or HEK-293 cells

NLK = target: T3, NLK (Homo sapiens, UniProt Q9UBE8)
T3 construct: T7 phage fusion (said for most assays); made in house

p38-beta = p38-beta (Homo sapiens, UniProt Q15759)
PDGFRA = PDGFRA (Homo sapiens, UniProt P16234)
PIK3CG = PIK3CG (Homo sapiens, UniProt P48736)
PIK4CB = PIK4CB (Homo sapiens, UniProt Q9UBF8)
QSK = QSK (Homo sapiens, UniProt Q9Y2K2)
RET = RET (Homo sapiens, UniProt P07949)
ROS1 = ROS1 (Homo sapiens, UniProt P08922)
[1] = target: RPS6KA4 (Kin.Dom.2-C-terminal) (Homo sapiens, UniProt O75676)
[2] = target: RSK4 (Kin.Dom.2-C-terminal) (Homo sapiens, UniProt Q9UK32)
SGK3 = SGK3 (Homo sapiens, UniProt Q96BR1)
SRPK3 = SRPK3 (Homo sapiens, UniProt Q9UPE1)
STK33 = STK33 (Homo sapiens, UniProt Q9BYT3)
TAOK2 = TAOK2 (Homo sapiens, UniProt Q9UL54)
TRKA = TRKA (Homo sapiens, UniProt P04629)
ULK3 = ULK3 (Homo sapiens, UniProt Q6PHR2)
WNK3 = WNK3 (Homo sapiens, UniProt Q9BYP7)

T2 sequence (P08581 25-1390 M1250T): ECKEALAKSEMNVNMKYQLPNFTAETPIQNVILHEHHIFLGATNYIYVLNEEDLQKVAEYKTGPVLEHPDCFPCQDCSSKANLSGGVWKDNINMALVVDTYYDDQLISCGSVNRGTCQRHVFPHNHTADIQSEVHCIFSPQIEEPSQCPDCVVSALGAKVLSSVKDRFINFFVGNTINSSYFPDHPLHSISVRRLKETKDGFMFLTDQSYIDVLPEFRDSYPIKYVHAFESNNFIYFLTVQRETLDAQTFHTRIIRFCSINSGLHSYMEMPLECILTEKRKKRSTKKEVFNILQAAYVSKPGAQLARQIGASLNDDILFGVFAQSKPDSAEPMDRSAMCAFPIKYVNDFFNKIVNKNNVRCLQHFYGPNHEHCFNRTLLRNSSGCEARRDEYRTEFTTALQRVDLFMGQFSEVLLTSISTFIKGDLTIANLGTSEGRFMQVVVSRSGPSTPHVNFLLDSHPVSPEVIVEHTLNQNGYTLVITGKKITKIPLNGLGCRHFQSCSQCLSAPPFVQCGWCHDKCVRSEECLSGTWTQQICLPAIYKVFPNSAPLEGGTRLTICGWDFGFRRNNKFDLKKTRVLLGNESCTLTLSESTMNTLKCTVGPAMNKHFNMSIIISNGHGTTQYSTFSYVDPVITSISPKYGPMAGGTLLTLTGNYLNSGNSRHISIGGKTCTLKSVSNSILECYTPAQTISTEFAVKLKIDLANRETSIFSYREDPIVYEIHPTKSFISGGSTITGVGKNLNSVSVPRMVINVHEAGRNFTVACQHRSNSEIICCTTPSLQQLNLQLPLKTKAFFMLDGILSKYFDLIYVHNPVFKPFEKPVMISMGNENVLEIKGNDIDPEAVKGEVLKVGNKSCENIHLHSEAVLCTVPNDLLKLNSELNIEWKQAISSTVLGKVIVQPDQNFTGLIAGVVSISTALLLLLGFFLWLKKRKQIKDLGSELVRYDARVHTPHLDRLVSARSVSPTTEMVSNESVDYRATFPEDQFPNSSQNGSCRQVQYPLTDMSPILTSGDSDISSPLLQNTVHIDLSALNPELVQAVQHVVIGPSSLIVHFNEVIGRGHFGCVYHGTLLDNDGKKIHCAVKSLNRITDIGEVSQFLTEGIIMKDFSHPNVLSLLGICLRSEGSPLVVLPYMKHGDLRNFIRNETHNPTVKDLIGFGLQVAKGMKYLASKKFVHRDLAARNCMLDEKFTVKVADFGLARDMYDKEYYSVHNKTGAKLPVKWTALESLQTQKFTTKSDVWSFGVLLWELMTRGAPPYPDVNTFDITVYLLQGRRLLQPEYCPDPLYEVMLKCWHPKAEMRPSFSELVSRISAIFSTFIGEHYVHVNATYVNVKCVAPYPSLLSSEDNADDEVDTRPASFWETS
Sequence of INSR (P06213 28-1382): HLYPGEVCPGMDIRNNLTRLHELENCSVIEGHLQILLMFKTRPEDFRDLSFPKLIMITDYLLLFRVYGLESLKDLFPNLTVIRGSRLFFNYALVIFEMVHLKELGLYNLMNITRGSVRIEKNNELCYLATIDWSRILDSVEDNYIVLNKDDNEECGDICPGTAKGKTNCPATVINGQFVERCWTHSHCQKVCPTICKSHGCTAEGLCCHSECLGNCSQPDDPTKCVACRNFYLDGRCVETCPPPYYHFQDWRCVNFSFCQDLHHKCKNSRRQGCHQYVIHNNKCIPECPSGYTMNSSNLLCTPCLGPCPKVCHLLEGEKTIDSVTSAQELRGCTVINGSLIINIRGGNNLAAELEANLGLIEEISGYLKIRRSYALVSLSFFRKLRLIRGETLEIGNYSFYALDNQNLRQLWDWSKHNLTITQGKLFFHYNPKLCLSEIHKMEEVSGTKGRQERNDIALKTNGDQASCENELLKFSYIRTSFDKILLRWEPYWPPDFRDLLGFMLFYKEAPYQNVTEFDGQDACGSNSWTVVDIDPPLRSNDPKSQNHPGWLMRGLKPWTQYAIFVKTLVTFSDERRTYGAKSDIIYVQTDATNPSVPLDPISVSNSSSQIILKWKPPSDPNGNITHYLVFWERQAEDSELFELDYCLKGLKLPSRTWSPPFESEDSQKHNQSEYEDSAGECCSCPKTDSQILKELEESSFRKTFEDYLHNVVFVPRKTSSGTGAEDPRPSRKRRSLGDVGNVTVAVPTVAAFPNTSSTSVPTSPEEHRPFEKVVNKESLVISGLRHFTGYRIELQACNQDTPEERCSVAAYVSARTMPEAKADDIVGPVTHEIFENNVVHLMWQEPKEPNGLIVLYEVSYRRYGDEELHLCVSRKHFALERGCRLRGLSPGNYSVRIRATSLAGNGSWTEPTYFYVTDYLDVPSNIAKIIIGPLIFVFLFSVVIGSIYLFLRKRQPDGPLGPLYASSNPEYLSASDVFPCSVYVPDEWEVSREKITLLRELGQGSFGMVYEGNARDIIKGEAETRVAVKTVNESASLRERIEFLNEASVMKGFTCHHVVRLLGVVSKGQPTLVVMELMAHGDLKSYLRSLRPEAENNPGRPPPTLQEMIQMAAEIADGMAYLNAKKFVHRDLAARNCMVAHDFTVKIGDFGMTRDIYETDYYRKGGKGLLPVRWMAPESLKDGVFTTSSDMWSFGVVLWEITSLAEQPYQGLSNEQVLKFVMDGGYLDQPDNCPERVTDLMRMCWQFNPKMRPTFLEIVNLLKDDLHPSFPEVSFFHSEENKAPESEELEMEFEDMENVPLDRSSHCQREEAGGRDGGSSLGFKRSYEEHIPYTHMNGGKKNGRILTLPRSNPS
Sequence of CAMKK1 (Q8N5S9 whole entry): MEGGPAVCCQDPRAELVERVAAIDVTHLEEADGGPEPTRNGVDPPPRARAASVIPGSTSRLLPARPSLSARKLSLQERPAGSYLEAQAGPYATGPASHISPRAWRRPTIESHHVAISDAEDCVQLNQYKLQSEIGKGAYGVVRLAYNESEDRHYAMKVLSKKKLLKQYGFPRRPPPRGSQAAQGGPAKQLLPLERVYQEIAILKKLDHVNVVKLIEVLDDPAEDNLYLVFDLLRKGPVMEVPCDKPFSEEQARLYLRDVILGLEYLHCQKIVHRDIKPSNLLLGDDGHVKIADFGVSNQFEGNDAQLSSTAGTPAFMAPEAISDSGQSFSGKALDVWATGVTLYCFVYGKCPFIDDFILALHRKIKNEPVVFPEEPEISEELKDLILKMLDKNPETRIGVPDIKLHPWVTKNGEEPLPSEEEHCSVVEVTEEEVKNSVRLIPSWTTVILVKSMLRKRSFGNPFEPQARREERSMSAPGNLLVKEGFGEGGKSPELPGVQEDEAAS
Sequence of RSK4 (Kin.Dom.2-C-terminal) (Q9UK32 426-683 limits assumed): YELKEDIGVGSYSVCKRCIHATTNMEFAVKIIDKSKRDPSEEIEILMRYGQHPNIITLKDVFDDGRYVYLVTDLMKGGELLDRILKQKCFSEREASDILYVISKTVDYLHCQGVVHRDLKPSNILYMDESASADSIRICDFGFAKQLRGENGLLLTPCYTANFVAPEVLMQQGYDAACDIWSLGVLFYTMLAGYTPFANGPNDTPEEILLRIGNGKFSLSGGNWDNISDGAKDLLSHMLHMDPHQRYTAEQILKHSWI
Sequence of EGFR (G719C) (P00533 25-1210 G719C): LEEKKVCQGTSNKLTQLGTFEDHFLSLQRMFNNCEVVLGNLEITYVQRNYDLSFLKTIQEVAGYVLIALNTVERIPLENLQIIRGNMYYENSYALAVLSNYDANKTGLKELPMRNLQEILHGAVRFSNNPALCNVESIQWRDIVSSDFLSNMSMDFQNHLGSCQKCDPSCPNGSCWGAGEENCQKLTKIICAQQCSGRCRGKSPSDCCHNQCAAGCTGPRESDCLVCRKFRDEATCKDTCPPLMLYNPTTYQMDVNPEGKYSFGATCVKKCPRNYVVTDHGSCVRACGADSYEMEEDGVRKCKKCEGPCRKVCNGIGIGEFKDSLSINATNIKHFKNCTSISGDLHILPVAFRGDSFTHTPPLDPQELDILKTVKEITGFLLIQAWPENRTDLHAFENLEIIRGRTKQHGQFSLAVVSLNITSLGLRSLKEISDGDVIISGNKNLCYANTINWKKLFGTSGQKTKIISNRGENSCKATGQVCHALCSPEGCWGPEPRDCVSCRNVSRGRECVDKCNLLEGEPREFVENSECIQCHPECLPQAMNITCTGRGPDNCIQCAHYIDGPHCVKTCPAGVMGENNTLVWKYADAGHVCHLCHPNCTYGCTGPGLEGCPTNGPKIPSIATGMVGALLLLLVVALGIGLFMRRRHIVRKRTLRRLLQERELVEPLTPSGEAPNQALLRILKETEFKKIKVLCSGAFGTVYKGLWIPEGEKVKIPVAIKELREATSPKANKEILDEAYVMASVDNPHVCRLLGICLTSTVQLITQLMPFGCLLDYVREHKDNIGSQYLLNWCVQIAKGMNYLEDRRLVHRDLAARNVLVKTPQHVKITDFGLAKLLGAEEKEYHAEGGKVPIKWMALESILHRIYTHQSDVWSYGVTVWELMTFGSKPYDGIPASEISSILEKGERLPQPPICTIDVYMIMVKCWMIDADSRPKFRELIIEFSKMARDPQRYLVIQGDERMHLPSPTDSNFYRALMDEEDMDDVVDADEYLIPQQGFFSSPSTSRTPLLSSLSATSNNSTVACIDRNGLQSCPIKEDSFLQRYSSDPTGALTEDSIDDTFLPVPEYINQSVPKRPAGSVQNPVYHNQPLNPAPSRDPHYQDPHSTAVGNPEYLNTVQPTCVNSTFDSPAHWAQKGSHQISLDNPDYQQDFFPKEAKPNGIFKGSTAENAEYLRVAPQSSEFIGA
Sequence of p38-beta (Q15759 whole entry): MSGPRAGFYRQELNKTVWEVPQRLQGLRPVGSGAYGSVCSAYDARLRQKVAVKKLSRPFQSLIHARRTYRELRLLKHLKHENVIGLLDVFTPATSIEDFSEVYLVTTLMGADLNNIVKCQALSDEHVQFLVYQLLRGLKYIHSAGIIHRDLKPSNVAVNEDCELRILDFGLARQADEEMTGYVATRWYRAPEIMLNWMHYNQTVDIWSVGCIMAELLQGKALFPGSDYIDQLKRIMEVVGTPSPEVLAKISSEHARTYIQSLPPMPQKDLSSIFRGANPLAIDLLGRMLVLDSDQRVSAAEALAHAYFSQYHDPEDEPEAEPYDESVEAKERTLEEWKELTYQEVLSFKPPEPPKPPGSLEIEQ

Structure (SMILES): Cc1cc(Oc2cc(NC(=O)C3CC3)ncn2)ccc1NC(=O)Nc1ccc(Cl)c(C(F)(F)F)c1 [CBT-102]
- remaining activity at 1 µM (ACVR1): 95%
- remaining activity at 1 µM (ACVR1B): 100%
- remaining activity at 1 µM (BLK): 48%
- remaining activity at 1 µM (BMX): 90%
- remaining activity at 1 µM (CAMKK1): 88%
- remaining activity at 1 µM (DCAMKL1): 100%
- remaining activity at 1 µM (EGFR (G719C)): 66%
- remaining activity at 1 µM (EGFR (T790M)): 94%
- remaining activity at 1 µM (EPHA5): 52%
- remaining activity at 1 µM (EPHA7): 4.1%
- remaining activity at 1 µM (EPHB2): 44%
- remaining activity at 1 µM (ERK3): 100%
- remaining activity at 1 µM (FGFR1): 61%
- remaining activity at 1 µM (FLT3): 2.3%
- remaining activity at 1 µM (FLT3 (K663Q)): 3.9%
- remaining activity at 1 µM (GRK1): 100%
- remaining activity at 1 µM (HIPK1): 96%
- remaining activity at 1 µM (INSR): 100%
- remaining activity at 1 µM (INSRR): 100%
- remaining activity at 1 µM (IRAK3): 100%
- remaining activity at 1 µM (MEK1): 83%
- remaining activity at 1 µM (MET (M1250T)): 84%
- remaining activity at 1 µM (NLK): 16%
- remaining activity at 1 µM (p38-beta): 0%
- remaining activity at 1 µM (PDGFRA): 2.1%
- remaining activity at 1 µM (PIK3CG): 100%
- remaining activity at 1 µM (PIK4CB): 100%
- remaining activity at 1 µM (QSK): 91%
- remaining activity at 1 µM (RET): 0%
- remaining activity at 1 µM (ROS1): 63%
- remaining activity at 1 µM [1]: 100%
- remaining activity at 1 µM [2]: 73%
- remaining activity at 1 µM (SGK3): 82%
- remaining activity at 1 µM (SRPK3): 100%
- remaining activity at 1 µM (STK33): 63%
- remaining activity at 1 µM (TAOK2): 23%
- remaining activity at 1 µM (TRKA): 74%
- remaining activity at 1 µM (ULK3): 88%
- remaining activity at 1 µM (WNK3): 100%

From patent US20220088016A1, “CANCER TREATMENT USING MULTI-TARGETED KINASE INHIBITOR IN COMBINATION OF PROTEIN KINASE BIOMARKERS” (ZHEJIANG CROWNMAB BIOTECH CO. LTD., priority 2019, published 2022)
